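Step 1: Grow cells in 96-well plates. Step 2: Expose to compound for 48 hours at 5 concentrations. Step 3: Interpolate endpoints linearly; if unreached, use highest concentration. Abbreviation: GI50, concentration required for 50% inhibition of growth.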 Active and inactive are the calls of the source. Rule as the data show it: active = GI50 up to about 1.1 µM and inactive = higher.
Key:
Assay in all cases: DTP human tumour cell line panel, 48 h
786-0 = tested on: 786-0
A498 = tested on: A498
A549 = tested on: A549
ACHN = tested on: ACHN
CAKI-1 = tested on: CAKI-1
CCRF-CEM = tested on: CCRF-CEM
COLO 205 = tested on: COLO 205
DLD-1 = tested on: DLD-1
DMS-114 = tested on: DMS-114
DMS-273 = tested on: DMS-273
EKVX = tested on: EKVX
HCC 2998 = tested on: HCC 2998
HCT-116 = tested on: HCT-116
HCT-15 = tested on: HCT-15
HOP-18 = tested on: HOP-18
HOP-62 = tested on: HOP-62
HT-29 = tested on: HT-29
IGROV-1 = tested on: IGROV-1
K562 = tested on: K562
KM-20L2 = tested on: KM-20L2
KM12 = tested on: KM12
LOX IMVI = tested on: LOX IMVI
M14 = tested on: M14
M19-MEL = tested on: M19-MEL
MOLT-4 = tested on: MOLT-4
Malme-3M = tested on: Malme-3M
NCI-H226 = tested on: NCI-H226
NCI-H23 = tested on: NCI-H23
NCI-H460 = tested on: NCI-H460
OVCAR-3 = tested on: OVCAR-3
OVCAR-4 = tested on: OVCAR-4
OVCAR-5 = tested on: OVCAR-5
OVCAR-8 = tested on: OVCAR-8
RPMI-8226 = tested on: RPMI-8226
SF-268 = tested on: SF-268
SF-295 = tested on: SF-295
SF-539 = tested on: SF-539
SK-MEL-28 = tested on: SK-MEL-28
SK-MEL-2 = tested on: SK-MEL-2
SK-MEL-5 = tested on: SK-MEL-5
SK-OV-3 = tested on: SK-OV-3
SN12C = tested on: SN12C
SNB-19 = tested on: SNB-19
SNB-75 = tested on: SNB-75
SNB-78 = tested on: SNB-78
SW-620 = tested on: SW-620
TK-10 = tested on: TK-10
U-251 = tested on: U-251
UACC-257 = tested on: UACC-257
UACC-62 = tested on: UACC-62
UO-31 = tested on: UO-31
XF498 = tested on: XF498

COc1ccc(C2Cc3cc(OC)c(OC)c(OC)c3C2)cc1 (configuration not stated)
GI50 (786-0): 61.4 µM (inactive) | GI50 (A498): 28.6 µM (inactive) | GI50 (A549): 22 µM (inactive) | GI50 (ACHN): 39.1 µM (inactive) | GI50 (CAKI-1): 36.9 µM (inactive) | GI50 (CCRF-CEM): 32.6 µM (inactive) | GI50 (COLO 205): 66.7 µM (inactive) | GI50 (DLD-1): 44.7 µM (inactive) | GI50 (DMS-114): 27.8 µM (inactive) | GI50 (DMS-273): 36.8 µM (inactive) | GI50 (EKVX): 29 µM (inactive) | GI50 (HCC 2998): 49.9 µM (inactive) | GI50 (HCT-116): 41 µM (inactive) | GI50 (HCT-15): 38.6 µM | GI50 (HOP-18): 72.3 µM (inactive) | GI50 (HOP-62): 97.5 µM (inactive) | GI50 (HT-29): 28.1 µM (inactive) | GI50 (IGROV-1): > 100 µM (inactive) | GI50 (K562): 20.2 µM (inactive) | GI50 (KM-20L2): 49.8 µM (inactive) | GI50 (KM12): 23 µM (inactive) | GI50 (LOX IMVI): 56.8 µM (inactive) | GI50 (M14): 35.6 µM (inactive) | GI50 (M19-MEL): 41.9 µM (inactive) | GI50 (MOLT-4): 22.4 µM (inactive) | GI50 (Malme-3M): 22.8 µM (inactive) | GI50 (NCI-H226): 34.9 µM (inactive) | GI50 (NCI-H23): 9.59 µM (inactive) | GI50 (NCI-H460): 46.6 µM (inactive) | GI50 (OVCAR-3): 38.8 µM (inactive) | GI50 (OVCAR-4): 59.6 µM (inactive) | GI50 (OVCAR-5): 90.4 µM (inactive) | GI50 (OVCAR-8): 48.5 µM (inactive) | GI50 (RPMI-8226): 18.8 µM (inactive) | GI50 (SF-268): 47.1 µM (inactive) | GI50 (SF-295): 41.1 µM (inactive) | GI50 (SF-539): 64.7 µM (inactive) | GI50 (SK-MEL-28): 31.2 µM (inactive) | GI50 (SK-MEL-2): 30.6 µM (inactive) | GI50 (SK-MEL-5): 16.3 µM (inactive) | GI50 (SK-OV-3): > 100 µM (inactive) | GI50 (SN12C): 52.2 µM (inactive) | GI50 (SNB-19): 55.6 µM (inactive) | GI50 (SNB-75): 24.2 µM (inactive) | GI50 (SNB-78): 72.6 µM (inactive) | GI50 (SW-620): 29.4 µM (inactive) | GI50 (TK-10): 30.3 µM (inactive) | GI50 (U-251): 73.5 µM (inactive) | GI50 (UACC-257): 23.2 µM (inactive) | GI50 (UACC-62): 66.1 µM (inactive) | GI50 (UO-31): 21.3 µM (inactive) | GI50 (XF498): 11.3 µM (inactive)
